Data taken from patent US20240228488A1 (TAKEDA PHARMACEUTICAL COMPANY LIMITED, priority 2021, published 2024).

target: human activated kallikrein enzyme (Homo sapiens, UniProt P03952); assay: Plasma kallikrein inhibition, fluorogenic PFR-AMC substrate, 500 pM activated kallikrein format; type: biochemical; conditions: 500 pM activated kallikrein, 300 uM PFR-AMC, 30 min preincubation, 10 min reaction; read-out: Primary Dose Response Assay: Average EC50
Summary of the method: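 Enzyme (500 pM) was preincubated with inhibitor for 30 min at room temperature in 20 mM Tris pH 7.5, 1 mM EDTA, 150 mM NaCl, 0.1% PEG-400 and 0.1% Triton X-100. The reaction was started with 300 uM PFR-AMC, run 10 min, and fluorescence read at 460 nm (380 nm excitation). EC50 derived.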

Sequence of human activated kallikrein enzyme (P03952 391-638 limits assumed): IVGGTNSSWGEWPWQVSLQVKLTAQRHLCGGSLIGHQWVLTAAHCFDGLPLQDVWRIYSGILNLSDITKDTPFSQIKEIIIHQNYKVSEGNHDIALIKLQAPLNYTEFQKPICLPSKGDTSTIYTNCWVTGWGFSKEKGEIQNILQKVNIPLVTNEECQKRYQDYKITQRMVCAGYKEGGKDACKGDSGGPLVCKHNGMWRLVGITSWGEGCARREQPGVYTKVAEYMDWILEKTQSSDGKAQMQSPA
Sequence of human activated kallikrein enzyme (P03952 20-390 partner limits assumed): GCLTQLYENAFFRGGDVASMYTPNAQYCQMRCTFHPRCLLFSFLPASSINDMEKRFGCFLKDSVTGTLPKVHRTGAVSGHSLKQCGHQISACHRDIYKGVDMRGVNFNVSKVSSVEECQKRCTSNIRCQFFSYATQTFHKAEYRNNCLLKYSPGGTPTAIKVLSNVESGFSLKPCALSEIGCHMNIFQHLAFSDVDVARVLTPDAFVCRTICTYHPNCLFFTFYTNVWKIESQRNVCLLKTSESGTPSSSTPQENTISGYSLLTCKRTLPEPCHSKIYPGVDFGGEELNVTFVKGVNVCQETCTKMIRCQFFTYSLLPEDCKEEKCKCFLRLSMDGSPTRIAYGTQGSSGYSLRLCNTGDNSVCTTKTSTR

Row | Structure (SMILES) | EC50 [nM]
1 | CC(NC(=O)[C@H]1C[C@@H]1c1cccc(Cl)c1)c1cn(Cc2cn3cc(C4CC4)ccc3n2)nn1 (single isomer, unassigned) [Example 590, rac-(1S*,2S*)-2-(3-chlorophenyl)-N-(1-(1-((6-cyclopropylimidazo[1,2-a]pyridin-2-yl)methyl)-1H-1,2,3-triazol-4-yl)ethyl)cyclopropane-1-carboxamide] | 10 to 100
2 | O=C(Nc1cc(NCc2cn3cc(C4CC4)cc(CO)c3n2)ccn1)[C@H]1C[C@@H]1c1cccc(Cl)c1 (racemic) [Example 98, rac-(1S*,2S*)-2-(3-chlorophenyl)-N-(4-(((6-cyclopropyl-8-(hydroxymethyl)imidazo[1,2-a]pyridin-2-yl)methyl)amino)pyridin-2-yl)cyclopropane-1-carboxamide] | < 1
3 | O=C(Nc1ncccc1OCc1cn2cc(C3CC3)ccc2n1)[C@H]1C[C@@H]1c1cccc(Cl)c1 [Example 569, (1S,2S)-2-(3-chlorophenyl)-N-(3-((6-cyclopropylimidazo[1,2-a]pyridin-2-yl)methoxy)pyridin-2-yl)cyclopropane-1-carboxamide] | 100 to 1000
4 | O=C(Nc1cc(NCc2cn3cc(C4CC4)ccc3n2)nc(N2CCCC2)n1)[C@@H]1C[C@H]1c1cccc(Cl)c1 (racemic) [Example 105, rac-(1S*,2S*)-2-(3-chlorophenyl)-N-(6-(((6-cyclopropylimidazo[1,2-a]pyridin-2-yl)methyl)amino)-2-(pyrrolidin-1-yl)pyrimidin-4-yl)cyclopropane-1-carboxamide] | 100 to 1000
5 | CCc1cc(N2CC(=O)N(C)C2=O)c2nc([C@@H](C)Nc3cc(NC(=O)[C@H]4C[C@@H]4c4nccc(C)n4)nc(C)n3)cn2c1 [Example 429, (1S,2S)-N-(6-(((R)-1-(6-ethyl-8-(3-methyl-2,4-dioxoimidazolidin-1-yl)imidazo[1,2-a]pyridin-2-yl)ethyl)amino)-2-methylpyrimidin-4-yl)-2-(4-methylpyrimidin-2-yl)cyclopropane-1-carboxamide] | < 1
6 | CCC(=O)O[C@H]1C[C@H](c2cn3cc(C4CC4)cc(N4CC(=O)N(C)C4=O)c3n2)N(c2cc(NC(=O)[C@H]3C[C@@H]3c3nccc(C)n3)ncn2)C1 [Example 425, (3S,5R)-5-(6-cyclopropyl-8-(3-methyl-2,4-dioxoimidazolidin-1-yl)imidazo[1,2-a]pyridin-2-yl)-1-(6-((1S,2S)-2-(4-methylpyrimidin-2-yl)cyclopropane-1-carboxamido)pyrimidin-4-yl)pyrrolidin-3-yl propionate] | 10 to 100
7 | Cc1ccnc([C@H]2C[C@@H]2C(=O)Nc2cc(N[C@H](C)c3cn4cc(C5CC5)cc(N5CC(=O)N(C)C5=O)c4n3)nc(CO)n2)n1 [Example 469, (1S,2S)-N-(6-(((R)-1-(6-cyclopropyl-8-(3-methyl-2,4-dioxoimidazolidin-1-yl)imidazo[1,2-a]pyridin-2-yl)ethyl)amino)-2-(hydroxymethyl)pyrimidin-4-yl)-2-(4-methylpyrimidin-2-yl)cyclopropane-1-carboxamide] | < 1
8 | O=C(Nc1cc(N2C[C@@H](CO)C[C@@H]2c2cn3cc(C4CC4)ccc3n2)ncn1)[C@H]1C[C@@H]1c1cc(Cl)ccn1 [Example 442, (1S,2S)-2-(4-chloropyridin-2-yl)-N-(6-((2R,4S)-2-(6-cyclopropylimidazo[1,2-a]pyridin-2-yl)-4-(hydroxymethyl)pyrrolidin-1-yl)pyrimidin-4-yl)cyclopropane-1-carboxamide] | 1000 to 6000
9 | CCOC(=O)c1nc(NCc2cn3cc(C4CC4)ccc3n2)cc(NC(=O)[C@H]2C[C@@H]2c2cccc(Cl)c2)n1 (racemic) [Example 111, rac-ethyl 4-((1S*,2S*)-2-(3-chlorophenyl)cyclopropane-1-carboxamido)-6-(((6-cyclopropylimidazo[1,2-a]pyridin-2-yl)methyl)amino)pyrimidine-2-carboxylate] | 1 to 10
10 | Cc1ccnc([C@H]2C[C@@H]2C(=O)Nc2cc(F)c(Cl)c(NCc3cn4cc(C5CC5)cc(N5CC(=O)N(C)C5=O)c4n3)c2)n1 [Example 658, (1S,2S)—N-(4-chloro-3-(((6-cyclopropyl-8-(3-methyl-2,4-dioxoimidazolidin-1-yl)imidazo[1,2-a]pyridin-2-yl)methyl)amino)-5-fluorophenyl)-2-(4-methylpyrimidin-2-yl)cyclopropane-1-carboxamide] | < 1

Results, then the compound that gave them:

Row | EC50 [nM] | Structure (SMILES)
11 | > 6000 | O=C(Nc1cc(NCc2cn3cc(C4CC4)ccc3n2)ncn1)[C@H]1C[C@@H]1c1n[nH]c2ccc(Cl)cc12 (racemic) [Example I-191, rac-(1S*,2S*)-2-(5-chloro-1H-indazol-3-yl)-N-(6-(((6-cyclopropylimidazo[1,2-a]pyridin-2-yl)methyl)amino)pyrimidin-4-yl)cyclopropane-1-carboxamide]
12 | < 1 | Cc1ccnc([C@H]2C[C@@H]2C(=O)Nc2cc(NC(CO)c3cn4cc(C5CC5)cc(N5CC(=O)N(C)C5=O)c4n3)nc(C)n2)n1 (stereo partly drawn) [Example I-650, (1S,2S)—N-(6-((1-(6-cyclopropyl-8-(3-methyl-2,4-dioxoimidazolidin-1-yl)imidazo[1,2-a]pyridin-2-yl)-2-hydroxyethyl)amino)-2-methylpyrimidin-4-yl)-2-(4-methylpyrimidin-2-yl)cyclopropane-1-carboxamide]
13 | > 6000 | CC(C)(C)OC(=O)Nc1ccc([C@H]2C[C@@H]2C(=O)Nc2cc(NCc3cn4cc(C5CC5)ccc4n3)ncn2)cc1Cl (racemic) [Example I-188, rac-tert-butyl (2-chloro-4-((1S*,2S*)-2-((6-(((6-cyclopropylimidazo[1,2-a]pyridin-2-yl)methyl)amino)pyrimidin-4-yl)carbamoyl)cyclopropyl)phenyl)carbamate]
14 | 1000 to 6000 | O=C(Nc1cc(N2C[C@@H](O)C[C@@H]2c2cn3cc(C4CC4)ccc3n2)ncn1)[C@H]1C[C@@H]1c1cc(Cl)ccn1 (single isomer, unassigned; isomer 1) [Example I-248, (1S*,2S*)-2-(4-chloropyridin-2-yl)-N-(6-((2R,4S)-2-(6-cyclopropylimidazo[1,2-a]pyridin-2-yl)-4-hydroxypyrrolidin-1-yl)pyrimidin-4-yl)cyclopropane-1-carboxamide, isomer 1]
15 | 10 to 100 | Nc1cc(Cl)cc([C@H]2C[C@@H]2C(=O)Nc2cc(NCc3cn4cc(C5CC5)ccc4n3)ncn2)c1 (racemic) [Example I-256, rac-(1S*,2S*)-2-(3-amino-5-chlorophenyl)-N-(6-(((6-cyclopropylimidazo[1,2-a]pyridin-2-yl)methylamino)pyrimidin-4-yl)cyclopropane-1-carboxamide]
16 | < 1 | Cc1cc(NC(=O)[C@H]2C[C@@H]2c2nccc(C)n2)nc(OCc2cn3cc(C4CC4)cc(N4CC(=O)N(C)C4=O)c3n2)n1 [Example I-652, (1S,2S)—N-(2-((6-cyclopropyl-8-(3-methyl-2,4-dioxoimidazolidin-1-yl)imidazo[1,2-a]pyridin-2-yl)methoxy)-6-methylpyrimidin-4-yl)-2-(4-methylpyrimidin-2-yl)cyclopropane-1-carboxamide]

same assay, conditions: comparative compounds, 500 pM activated kallikrein format; read-out: Primary Dose Response Assay: Average EC50

Row | EC50 [nM] | Structure (SMILES)
17 | 1000 to 6000 | O=c1ccc(NCc2cn3cc(C4CC4)ccc3n2)cn1NC[C@H]1C[C@@H]1c1cccc(Cl)c1
